The values that follow come from publication PMC11871066, “Structure-based discovery of hydrocarbon-stapled paxillin peptides that block FAK scaffolding in cancer” (Nature Communications, 2025).

Molecules are shown by their SMILES. Like-named read-outs stand apart in the source and are kept apart here. Bridge positions count the residues as written; N and C are the ends. Square brackets hold non-standard residues; d marks the D form. Peptide text beside a SMILES is read from it. R8 = C=CCCCCCC[C@@](C)(N)C(=O)O; S5 = C=CCCC[C@](C)(N)C(=O)O

In one data set the target is T1, FAK FAT domain (Homo sapiens, UniProt Q05397).
T1 sequence (Q05397 914-1045 limits assumed): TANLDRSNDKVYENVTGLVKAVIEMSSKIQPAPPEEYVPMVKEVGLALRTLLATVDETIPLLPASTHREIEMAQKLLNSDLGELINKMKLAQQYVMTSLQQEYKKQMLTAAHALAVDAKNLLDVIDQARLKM
Nature of the data set: SPR binding to immobilized biotinylated FAK FAT. The method, then: SPR binding studies were performed using biotinylated FAK FAT protein[51]. Briefly, SPR binding assays were performed on a ForteBio Pioneer FE SPR system using SPR running buffer (100 mM Tris-Cl pH 8.0, 200 mM NaCl, and 0.05% Tween-20). […] Desired immobilization levels were determined utilizing the following Eq. 1:1 Rmax=RproteinxMranalyte/MrproteinxVprotein where Rmax is the highest possible response of binding between the analyte and the protein, Rprotein is the change in response by the immobilization of the protein, Mr represents the mass of the analyte or protein, and Vprotein represents the number of binding sites on the protein. A target Rmax of approximately 100 RU was chosen.
All samples were diluted in the SPR buffer to a volume of 200 µl and injected using the OneStep gradient injection system at a flow rate of 150 µl/min. For a bulk standard control, a 3% (w\v) solution of sucrose in SPR buffer was used for injection. […] SPR data analysis utilized Qdat software (ForteBio, version 4.3.2 build 8) for normalization of the baseline prior to injection, channel alignment, and reference channel and blank subtraction.

Data set [1] concerns the target T2, FAK FAT / TAMRA-paxillin LD2 L10D (Homo sapiens, UniProt Q05397).
T2 construct: assay was performed using FAK FAT protein and TAMRA-LD2 L10D peptide
T2 sequence (Q05397 919-1052): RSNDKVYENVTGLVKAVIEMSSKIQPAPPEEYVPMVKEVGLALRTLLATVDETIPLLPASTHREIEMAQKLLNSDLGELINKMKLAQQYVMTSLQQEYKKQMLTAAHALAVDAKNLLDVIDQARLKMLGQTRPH
Kind of data set: Fluorescence polarization competition (FAK-paxillin) assay. It counts as binding. The procedure:
The IC50 was calculated using a four-parameter dose-response inhibition model, with the bottom fit constrained to the lower plateau of the binding curve.

The nature of data set [2]: Circular dichroism, % alpha-helicity. The data set is classed as physicochemical. Particulars: CD, 20 mM NaH2PO4 pH 7.0, 20 °C, CDSSTR. The procedure: CD experiments were performed on a Jasco J-815 CD spectrometer equipped with a Jasco PTC-423S/15 temperature control and analysis utilizing Spectra Manager (version 2.0). Spectral measurements were made in quartz spectrophotometer cells with an optical cell path length of 1.0 mm (Starna Cells Inc.) using standard collection parameters: 20 °C, 190–260 nm, 0.5 nm step resolution, 50 nm/min scanning speed, 0.5 s response, 1 nm bandwidth, 8 accumulations. […] Secondary structure analysis, including % alpha-helicity, was performed using the CDSSTR method[58] on data reference set 4 basis spectra. The reliability of secondary structure predictions was quantified by the goodness-of-fit of the back-calculated spectrum to the experimental spectrum and reported as a normalized root-mean-square deviation (NRMSD).
On the technique in general: Circular dichroism is widely used to follow secondary structure.

Data set [3] deals with trypsin (Bos taurus, UniProt P00760).
Chain of trypsin (Bos taurus, UniProt P00760) (P00760 24-246): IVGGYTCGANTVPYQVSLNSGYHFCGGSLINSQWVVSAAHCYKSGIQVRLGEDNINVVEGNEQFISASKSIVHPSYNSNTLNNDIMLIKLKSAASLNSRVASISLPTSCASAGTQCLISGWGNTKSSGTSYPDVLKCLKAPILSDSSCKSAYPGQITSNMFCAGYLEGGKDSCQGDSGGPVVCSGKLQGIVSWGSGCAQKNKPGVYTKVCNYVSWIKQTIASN
Description: (§1) Cell permeability of peptide drugs was determined by fluorescence measurement of TAMRA-labeled peptides in 96-well plates and ClarioStar Plus plate reader using BMG ClarioStar MARS software (version 4.20). […] Percent uptake was calculated as background-subtracted fluorescence absorbed by cells/fluorescence of peptide in media-only wells, then made relative to TAMRA-Alkyne. Three biological replicates (n = 3) were performed per cell line per treatment group. Peptide proteolysis was measured using immobilized Trypsin-agarose resin (Thermo Fisher) and quantification by LC-MS. […] In vivo pharmacokinetics were performed by the UACC Analytical Chemistry Shared Resource. […] The mice were fed NIH-31 irradiated pellets (Tekland Premier, Madison, Wisconsin), and reverse osmosis water was freely available. […] The average plasma concentration versus time data were analyzed using PKSolver (version 2.0) by a noncompartmental approach.
For data set [4], the system named is trypsin. Nature of the data set: in vitro. Conditions: isolated enzyme trypsin.
Description: as §1
The test system of data set [5] is trypsin. Kind of data set: Trypsin proteolytic resistance assay. Particulars: immobilized trypsin-agarose resin.
Description: as §1

By Kd is commonly meant the constant that tells how readily two partners part at equilibrium. Broadly, the Ki is a dissociation constant, usually derived from enzyme kinetics or from competition with a known ligand. Take `CC(=O)N[C@]1(C)CCCCCCC=CCCC[C@@](C)(C(N)=O)NC(=O)[C@H](CC(C)C)NC(=O)[C@H](CC(C)C)NC(=O)[C@H](CCCNC(=N)N)NC(=O)[C@H](CC(=O)O)NC(=O)[C@H](CC(C)C)NC(=O)[C@H](CCC(=O)O)NC1=O` [compound 2011] (Ac-[R8]ELDRLL[S5]-NH2; staple 1-8): the Kd at FAK FAT domain (Rep1, read-out: SPR (KD)) is more than 200 µM; at FAK FAT domain (Rep2, read-out: SPR (KD)), more than 200 µM; at FAK FAT domain (Rep3, read-out: SPR (KD)), more than 200 µM; on FAK FAT domain (read-out: SPR KD, pH 8), more than 200 µM. The inhibition constant Ki in data set [1] was more than 333 µM; in data set [1] (Rep2, read-out: FP (Ki) data), more than 333 µM.
Regarding `C=CCCCCCC[C@@](C)(NC(=O)[C@H](CC(C)C)NC(=O)[C@H](CC(N)=O)NC(C)=O)C(=O)N[C@@H](CCC(=O)O)C(=O)N[C@@H](CC(C)C)C(=O)N[C@@H](CC(=O)O)C(=O)N[C@@H](CCCNC(=N)N)C(=O)N[C@@H](CC(C)C)C(=O)N[C@@H](CC(C)C)C(=O)N[C@@](C)(CCCC=C)C(=O)N[C@@H](CCC(=O)O)C(=O)N[C@@H](CC(C)C)C(=O)N[C@@H](CC(N)=O)C(N)=O` [compound 2013], the Kd on FAK FAT domain (Rep2, read-out: SPR (KD)) turned out to be 35.6 µM. The helical content in data set [2] came to 70%.
With `CC(=O)N[C@@H](CC(N)=O)C(=O)N[C@@H](CC(C)C)C(=O)N[C@@H](CO)C(=O)N[C@]1(C)CCCCCCC=CCCC[C@@](C)(C(=O)N[C@@H](CC(C)C)C(=O)N[C@@H](CC(N)=O)C(N)=O)NC(=O)[C@H](CC(C)C)NC(=O)[C@H](CC(C)C)NC(=O)[C@H](CC(C)C)NC(=O)[C@H](CCCNC(=N)N)NC(=O)[C@H](CC(=O)O)NC(=O)[C@H](CC(C)C)NC1=O` [compound 1905] (Ac-NLS[R8]LDRLLL[S5]LN-NH2; staple 4-11), the Kd at FAK FAT domain (one-site kinetic fit, mean ± SD of n = 2-5 biological replicates, Tris pH 8.0, read-out: SPR KD) was 146 µM. Further, the Ki is more than 1250 µM in data set [1] (Rep1, read-out: FP (Ki) data); more than 1250 µM in data set [1] (Rep2, read-out: FP (Ki) data); more than 1250 µM in data set [1] (Rep3, read-out: FP (Ki) data).
By half-life is commonly meant the time needed for the level to fall by half in the phase considered. Low values mean fast loss, high ones slow loss. As a reminder, the amount remaining is the share of the starting amount still present when the sample was taken. A low value points to more turnover. Take `CC(=O)N[C@@H](CC(N)=O)C(=O)N[C@@H](CC(C)C)C(=O)N[C@@H](CO)C(=O)N[C@@H](CCC(=O)O)C(=O)N[C@@H](CC(C)C)C(=O)N[C@@H](CC(=O)O)C(=O)N[C@@H](CCCNC(=N)N)C(=O)N[C@@H](CC(C)C)C(=O)N[C@@H](CC(C)C)C(=O)N[C@@H](CC(C)C)C(=O)N[C@@H](CCC(=O)O)C(=O)N[C@@H](CC(C)C)C(=O)N[C@@H](CC(N)=O)C(N)=O` [LD2, reference compound]: the “trypsin proteolysis t1/2” value at trypsin [3] was determined as 46.8 min. The molecule further showed a half-life at 100 µM in the data set on trypsin [4] of 47 min. In the data set on trypsin [5], this molecule had an amount remaining at 0.25 h, 100 µM of 76%; an amount remaining at 0.5 h, 100 µM of 70%; a share remaining at 1 h, 100 µM of 29%; a fraction remaining at 2 h, 100 µM of 16%. Also, in the data set on trypsin [5], the fraction remaining at 3 h, 100 µM was determined as 16%; the amount remaining at 4 h, 100 µM amounted to 13%; the fraction remaining at 6 h, 100 µM came out at 0%; the fraction remaining at 7 h, 100 µM was found to be 0%. In the data set on trypsin [5], this molecule had a share remaining at 24 h, 100 µM of 0% and a fraction remaining at 48 h, 100 µM of 0%.
